Assay results reported in patent US8614201B2 (Janssen Pharmaceutica NV, priority 2009, dated 2013).
pIC50: −log10 of the molar value.

Molecular target: Human TRPA1 (Homo sapiens, UniProt O75762)
Experiment: Assay 1: In vitro cellular testing of TRPA1 modulation (CHO-TREx, Fluo-3 calcium fluorescence, AITC agonist)
Assay type: cell-based
Set-up: expressed in transfected cells; host or cells: CHO-TREx cells (Invitrogen), vector pcDNA4/TO
Settings: CHO-TREx cells expressing human TRPA1; Fluo-3 fluorescence (FLIPR/Tetra); agonist 15 μM allyl isothiocyanate (AITC); 30 minute antagonist incubation
How it was run: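 Antagonist potency is the 50% reduction of the AITC (15 μM) calcium response, Hill-fitted against no-antagonist and 10 μM ruthenium red controls. Fluo-3-loaded (4 μM) CHO-TREx cells with tetracycline-inducible human TRPA1 got compound in HEPES saline pH 7.4 for 30 min, usually from 10 μM in three-fold dilutions.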

Sequence of Human TRPA1 (O75762 whole entry): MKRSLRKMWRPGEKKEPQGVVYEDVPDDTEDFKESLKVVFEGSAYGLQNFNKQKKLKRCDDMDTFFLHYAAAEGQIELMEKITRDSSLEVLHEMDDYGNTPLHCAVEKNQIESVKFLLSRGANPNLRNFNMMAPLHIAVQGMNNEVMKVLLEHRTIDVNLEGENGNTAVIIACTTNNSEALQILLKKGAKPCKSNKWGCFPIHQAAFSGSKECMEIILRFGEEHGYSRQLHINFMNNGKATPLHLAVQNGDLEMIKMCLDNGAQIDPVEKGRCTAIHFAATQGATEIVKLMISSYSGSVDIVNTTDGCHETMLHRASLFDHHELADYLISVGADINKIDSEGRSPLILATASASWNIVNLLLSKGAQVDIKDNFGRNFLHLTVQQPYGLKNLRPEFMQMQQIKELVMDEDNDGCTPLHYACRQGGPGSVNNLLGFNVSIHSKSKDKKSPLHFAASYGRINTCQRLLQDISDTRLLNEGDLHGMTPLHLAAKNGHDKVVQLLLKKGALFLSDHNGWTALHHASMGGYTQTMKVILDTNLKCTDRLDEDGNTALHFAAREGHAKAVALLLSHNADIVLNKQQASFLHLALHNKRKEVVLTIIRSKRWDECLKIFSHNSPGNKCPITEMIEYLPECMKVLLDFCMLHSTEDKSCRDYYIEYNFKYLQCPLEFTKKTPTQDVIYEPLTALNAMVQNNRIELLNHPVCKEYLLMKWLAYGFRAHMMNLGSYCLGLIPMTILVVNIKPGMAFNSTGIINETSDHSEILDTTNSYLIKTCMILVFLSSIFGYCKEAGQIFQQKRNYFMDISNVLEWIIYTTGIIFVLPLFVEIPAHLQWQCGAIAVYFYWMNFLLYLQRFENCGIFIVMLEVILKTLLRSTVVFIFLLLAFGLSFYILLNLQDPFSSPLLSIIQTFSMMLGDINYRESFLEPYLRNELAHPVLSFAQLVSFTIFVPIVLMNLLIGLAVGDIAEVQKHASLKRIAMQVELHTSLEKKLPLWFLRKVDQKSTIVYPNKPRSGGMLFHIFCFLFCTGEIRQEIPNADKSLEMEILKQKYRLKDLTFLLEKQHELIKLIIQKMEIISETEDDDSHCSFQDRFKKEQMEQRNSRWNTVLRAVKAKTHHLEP

pIC50	SMILES
4.85	NC(=O)c1ccc(-c2cccc(CNC(=O)[C@@H]3CCCN3S(=O)(=O)c3ccc(F)cc3)c2)cc1 [Example 85, 1-(4-Fluorobenzenesulfonyl)-pyrrolidine-2S-carboxylic acid (4′-carbamoylbiphenyl-3-ylmethyl)-amide]
7.07	N#Cc1ccc(-c2cccc(CNC(=O)[C@@H]3CCCN3S(=O)(=O)c3ccc(F)cc3)c2)cc1 [Example 86, 1-(4-Fluoro-benzenesulfonyl)-pyrrolidine-2S-carboxylic acid (4′-cyano-biphenyl-3-ylmethyl)-amide]
5.75	Cc1ccc(-c2cccc(CNC(=O)[C@@H]3CCCN3S(=O)(=O)c3ccc(F)cc3)c2)cn1 [Example 87, 1-(4-Fluorobenzenesulfonyl)-pyrrolidine-2S-carboxylic acid 3-(6-methylpyridin-3-yl)-benzyl amide]
7.77	O=C(NCc1cccc(-c2ccc(C(F)(F)F)nc2)c1)[C@@H]1CCCN1S(=O)(=O)c1ccc(F)cc1 [Example 88, 1-(4-Fluorobenzenesulfonyl)-pyrrolidine-2S-carboxylic acid 3-(6-trifluoromethylpyridin-3-yl)-benzyl amide]
6.07	CC(=O)c1ccc(-c2cccc(CNC(=O)[C@@H]3CCCN3S(=O)(=O)c3ccc(F)cc3)c2)cc1 [Example 89, 1-(4-Fluorobenzenesulfonyl)-pyrrolidine-2S-carboxylic acid (4′-acetylbiphenyl-3-ylmethyl)-amide]
5.08	COc1ccc(-c2cccc(CNC(=O)[C@@H]3CCCN3S(=O)(=O)c3ccc(F)cc3)c2)nc1 [Example 90, 1-(4-Fluorobenzenesulfonyl)-pyrrolidine-2S-carboxylic acid 3-(5-methoxypyridin-2-yl)-benzylamide]
6.76	O=C(NCc1cccc(-c2ccc(Cl)cn2)c1)[C@@H]1CCCN1S(=O)(=O)c1ccc(F)cc1 [Example 91, 1-(4-Fluorobenzenesulfonyl)-pyrrolidine-2S-carboxylic acid 3-(5-chloropyridin-2-yl)-benzylamide]
7.77	O=C(NCc1cccc(-c2ccc(C(F)(F)F)cn2)c1)[C@@H]1CCCN1S(=O)(=O)c1ccc(F)cc1 [Example 92, 1-(4-Fluorobenzenesulfonyl)-pyrrolidine-2S-carboxylic acid 3-(5-trifluoromethylpyridin-2-yl)-benzylamide]
7.07	CN(C)c1ccc(-c2cccc(CNC(=O)[C@@H]3CCCN3S(=O)(=O)c3ccc(F)cc3)c2)cc1 [Example 93, 1-(4-Fluorobenzenesulfonyl)-pyrrolidine-2S-carboxylic acid (4′-dimethylaminobiphenyl-3-ylmethyl)-amide]
5.79	O=C(NCc1cccc(-c2ccc(N3CCOCC3)cc2)c1)[C@@H]1CCCN1S(=O)(=O)c1ccc(F)cc1 [Example 94, 1-(4-Fluorobenzenesulfonyl)-pyrrolidine-2S-carboxylic acid (4′-morpholin-4-yl-biphenyl-3-ylmethyl)-amide]
6.36	Cn1ccc2cc(-c3cccc(CNC(=O)[C@@H]4CCCN4S(=O)(=O)c4ccc(F)cc4)c3)ccc21 [Example 96, 1-(4-Fluoro-benzenesulfonyl)-pyrrolidine-2S-carboxylic acid 3-(1-methyl-1H-indol-5-yl)-benzylamide]
5.77	O=C(NCc1cccc(-c2ccc(N3CCOCC3)nc2)c1)[C@@H]1CCCN1S(=O)(=O)c1ccc(F)cc1 [Example 97, 1-(4-Fluorobenzenesulfonyl)-pyrrolidine-2S-carboxylic acid 3-(6-morpholin-4-yl-pyridin-3-yl)-benzylamide]
6.42	O=C(NCc1cccc(-c2ccccc2)c1)[C@@H]1CCCN1S(=O)(=O)c1ccc(F)cc1 [Example 98, 1-(4-Fluorobenzenesulfonyl)-pyrrolidine-2S-carboxylic acid (biphenyl-3-ylmethyl)-amide]
5.39	O=C(NCc1cccc(-c2ccc3cc[nH]c3c2)c1)[C@@H]1CCCN1S(=O)(=O)c1ccc(F)cc1 [Example 101, 1-(4-Fluorobenzenesulfonyl)-pyrrolidine-2S-carboxylic acid 3-(1H-indol-6-yl)-benzylamide]
5.77	O=C(NCc1cccc(-c2ccc(CN3CCOCC3)cc2)c1)[C@@H]1CCCN1S(=O)(=O)c1ccc(F)cc1 [Example 102, 1-(4-Fluorobenzenesulfonyl)-pyrrolidine-2S-carboxylic acid (4′-morpholin-4-ylmethylbiphenyl-3-ylmethyl)-amide]
6.60	O=C(NCc1cccc(-c2ccc(N3CCCCC3)cc2)c1)[C@@H]1CCCN1S(=O)(=O)c1ccc(F)cc1 [Example 103, 1-(4-Fluoro-benzenesulfonyl)-pyrrolidine-2S-carboxylic acid (4′-piperidin-1-yl-biphenyl-3-ylmethyl)-amide]

pIC50	SMILES
6.34	CN(C)c1ccc(-c2cccc(CNC(=O)[C@@H]3CCCN3S(=O)(=O)c3ccc(F)cc3)c2)cn1 [Example 104, 1-(4-Fluorobenzenesulfonyl)-pyrrolidine-2S-carboxylic acid 3-(6-dimethylaminopyridin-3-yl)-benzylamide]
5.99	O=C(NCc1cccc(-c2cnc3ccccc3c2)c1)[C@@H]1CCCN1S(=O)(=O)c1ccc(F)cc1 [Example 105]
6.23	O=C(NCc1cccc(-c2ccc3ncccc3c2)c1)[C@@H]1CCCN1S(=O)(=O)c1ccc(F)cc1 [Example 106, 1-(4-Fluoro-benzenesulfonyl)-pyrrolidine-2S-carboxylic acid 3-quinolin-6-yl-benzylamide]
6.29	O=C(NCc1cccc(-c2ccc3ccccc3n2)c1)[C@@H]1CCCN1S(=O)(=O)c1ccc(F)cc1 [Example 107, 1-(4-Fluoro-benzenesulfonyl)-pyrrolidine-2S-carboxylic acid 3-quinolin-2-yl-benzylamide]
5.60	Cn1ccc2ccc(-c3cccc(CNC(=O)[C@@H]4CCCN4S(=O)(=O)c4ccc(F)cc4)c3)cc21 [Example 108, 1-(4-Fluorobenzenesulfonyl)-pyrrolidine-2S-carboxylic acid 3-(1-methyl-1H-indol-6-yl)-benzylamide]
6.50	O=C(NCc1cccc(-c2ccc(C(F)(F)F)cc2)c1)[C@@H]1[C@H]2C[C@H]2CN1S(=O)(=O)c1ccc(F)cc1 [Example 109, 3-(4-Fluorobenzenesulfonyl)-3-aza-1S,5R-bicyclo[3.1.0]hexane-2S-carboxylic acid (4′-trifluoromethylbiphenyl-3-ylmethyl)-amide]
7.04	O=C(NCc1cccc(-c2ccc(C(F)(F)F)cc2)c1)[C@@H]1[C@H]2C[C@H]2CN1S(=O)(=O)c1ccc(Cl)s1 [Example 110, 3-(5-Chlorothiophene-2-sulfonyl)-3-aza-1S,5R-bicyclo[3.1.0]hexane-2S-carboxylic acid (4′-trifluoromethylbiphenyl-3-ylmethyl)-amide]
7.85	O=C(NCc1cccc(-c2ccc(C(F)(F)F)cc2)c1)[C@@H]1C=CCN1S(=O)(=O)c1ccc(F)cc1 [Example 111, 1-(4-Fluorobenzenesulfonyl)-2,5-dihydro-1H-pyrrole-2S-carboxylic acid (4′-trifluoromethylbiphenyl-3-ylmethyl)-amide]
7.96	O=C(NCc1cccc(-c2ccc(C(F)(F)F)cc2)c1)[C@@H]1C=CCN1S(=O)(=O)c1ccc(Cl)s1 [Example 112, 1-(5-Chlorothiophene-2-sulfonyl)-2,5-dihydro-1H-pyrrole-2S-carboxylic acid (4′-trifluoromethylbiphenyl-3-ylmethyl)-amide]
7.21	C[C@H](NC(=O)[C@@H]1CCCN1S(=O)(=O)c1ccc(F)cc1)c1cccc(-c2ccc(C(F)(F)F)cc2)c1 [Example 113, (1S,2S)-1-(4-Fluoro-benzenesulfonyl)-pyrrolidine-2-carboxylic acid [1-(4′-trifluoromethyl-biphenyl-3-yl)-ethyl]-amide]
5.53	C[C@@H](NC(=O)[C@@H]1CCCN1S(=O)(=O)c1ccc(F)cc1)c1cccc(-c2ccc(C(F)(F)F)cc2)c1 [Example 114, (1R,2S)-1-(4-Fluoro-benzenesulfonyl)-pyrrolidine-2-carboxylic acid [1-(4′-trifluoromethyl-biphenyl-3-yl)ethyl]-amide]
7.82	C[C@H](NC(=O)[C@@H]1CCCN1S(=O)(=O)c1ccc(Cl)s1)c1cccc(-c2ccc(C(F)(F)F)cc2)c1 [Example 115, (1S,2S)-1-(5-Chloro-thiophene-2-sulfonyl)-pyrrolidine-2-carboxylic acid [1-(4′-trifluoromethylbiphenyl-3-yl)ethyl]-amide]
6.41	C[C@@H](NC(=O)[C@@H]1CCCN1S(=O)(=O)c1ccc(Cl)s1)c1cccc(-c2ccc(C(F)(F)F)cc2)c1 [Example 116, (1R,2S)-1-(5-Chloro-thiophene-2-sulfonyl)-pyrrolidine-2-carboxylic acid [1-(4′-trifluoromethylbiphenyl-3-yl)ethyl]-amide]
5.24	CC(C)(NC(=O)[C@@H]1CCCN1S(=O)(=O)c1ccc(Cl)s1)c1cccc(-c2ccc(C(F)(F)F)cc2)c1 [Example 118, (2S)-1-(5-Chloro-thiophene-2-sulfonyl)-pyrrolidine-2-carboxylic acid [1-methyl-1-(4′-trifluoromethyl-biphenyl-3-yl)ethyl]-amide]
7.33	O=C(NCc1cccc(-c2ccc(C(F)(F)F)cc2)c1)[C@@H]1CC(F)(F)CN1S(=O)(=O)c1ccc(F)cc1 [Example 119, (2S)-4,4-Difluoro-1-(4-fluoro-benzenesulfonyl)-pyrrolidine-2-carboxylic acid (4′-trifluoromethyl-biphenyl-3-ylmethyl)-amide]
7.52	O=C(NCc1cccc(-c2ccc(C(F)(F)F)cc2)c1)[C@@H]1CC(F)(F)CN1S(=O)(=O)c1ccc(Cl)s1 [Example 120, (2S)-1-(5-Chloro-thiophene-2-sulfonyl)-4,4-difluoro-pyrrolidine-2-carboxylic acid (4′-trifluoromethyl-biphenyl-3-ylmethyl)-amide]
